We go through 64 compounds from ChEMBL document CHEMBL5604065, “ASAP - DENV-3 NS2B-NS3 protease fluorescence dose response” (2024).

Values joined by “and” are separate entries in the source; they are usually repeats but may differ in a detail not shown here. Equal entries are not always repeated.

This assay has as its target T1, NS3 protease (dengue virus type 3, UniProt A0A0B5JFF1).
T1 sequence (A0A0B5JFF1 whole entry): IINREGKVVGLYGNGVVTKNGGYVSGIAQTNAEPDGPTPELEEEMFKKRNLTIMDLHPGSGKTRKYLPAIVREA
Briefly: Functional biochemical assay to identify treatments for viral infectious disease that targets Dengue virus type 3 NS2B-NS3 protease. Utilizing a direct enzyme activity measurement method, reading the fluorescence intensity is used to characterize the relative potency of inhibitors as IC50. Also on record: species or system Philippines/H87/1956.
As usually defined, the IC50 is the concentration needed to halve the response being measured. A low value points to greater potency in that assay. With `Clc1ccc2[nH]cc(Cc3ccc(-c4nn[nH]n4)cc3)c2c1`, half-maximal inhibition (IC50) required 44.1 µM.

Turning to `CNC(=O)[C@H](Nc1cc(CN)cc(C(=O)O)c1)c1cc(Cl)cc(C2CC2)c1`, the IC50 is > 99.5 µM.

Consider `Cn1cc2cc(Cl)cc(C(=O)Nc3ccc4c(c3)CNC4)c2n1`, for which the IC50 was > 99.5 µM.

Compound `O=C(Nc1ccc2c(c1)CNC2)c1cccc(-c2cnco2)c1` came in with an IC50 of 21.2 µM.

Compound `N#Cc1ccc(-c2nc3c(C(=O)Nc4ccc5c(c4)CNC5)cc(F)cc3[nH]2)cc1` registered a 50% inhibitory concentration (IC50) of 1.7 µM.

`Cc1[nH]c2ccccc2c1CN1CCC(c2c[nH]c3ncccc23)CC1`: the IC50 is > 99.5 µM.

`O=C(Nc1ccc2c(c1)CNC2)c1cc(F)cc2[nH]c(-c3ccccc3)nc12` yielded an IC50 of 3.57 µM.

Compound `O=C(NC1CCOCC1)[C@H](Nc1ccc2c(c1)CNC2)c1cc(Cl)cc(C2CC2)c1` showed an IC50 of 53.4 µM.

For the compound `O=C(Nc1ccc2c(c1)CNC2)c1cccc2nc(O)ccc12`, the IC50 is > 99.5 µM.

In turn, `NCc1ccc(-c2csc3cc(C(=O)Nc4ccc5c(c4)CNC5)ccc23)cc1` returned an IC50 of 31.6 µM.

For `O=C(Nc1cc2c(cc1Br)CNC2)c1cc(F)cc2[nH]ncc12`, the IC50 worked out at 21.8 µM.

As to `O=C1Cc2c(cc(F)cc2C(=O)Nc2ccc3c(c2)CNC3)N1`, the IC50 is 8.59 µM.

`NCc1cccc(-c2csc3cc(C(=O)Nc4ccc5c(c4)CNC5)ccc23)c1` had an IC50 of 29.8 µM.

In the case of `N=C(N)NCCC[C@H](NC(=O)c1nccs1)C(=O)N[C@@H](CCCCN)C(=O)N[C@@H](C(N)=O)c1ccc(OCc2ccc(C(F)(F)F)cc2)cc1`, the IC50 was 2.22 µM (2×) and 2.34 µM and 1.63 µM and 2.19 µM and 2.45 µM and 1.49 µM.

Regarding `O=C(Nc1ccc2c(c1)CNC2)c1cc(F)cc2[nH]c(-c3cccc(F)c3)nc12`, the IC50 amounted to 2.73 µM.

Compound `Cc1cccc(-c2nc3c(C(=O)Nc4ccc5c(c4)CNC5)cc(Cl)cc3[nH]2)c1O` returned an IC50 of 4.44 µM.

In turn, `O=C(Nc1ccc2c(c1)CNC2)c1cc(F)cc2[nH]c(-c3ccccc3F)nc12` had an IC50 of 3.44 µM.

In the case of `N#Cc1cccc(-c2nc3c(C(=O)Nc4ccc5c(c4)CNC5)cc(F)cc3[nH]2)c1`, the IC50 is 2.31 µM.

For `CNC(=O)[C@H](Nc1ccc2c(c1)CNC2)c1cc(Cl)cc(C2CC2)c1`, the IC50 was > 99.5 µM.

For `N#C[C@H](Nc1cccc(-c2nn[nH]n2)c1)c1cc(Cl)cc(NC(=O)OCc2ccccc2)c1`, the midpoint of inhibition, the IC50, lay at 9.59 µM.

`O=C(Nc1cc(Cl)cc(C(=O)Nc2ccc3c(c2)CNC3)c1)OCc1ccccc1` registered an IC50 of 72.5 µM.

For `Cc1nc2c(C(=O)Nc3ccc4c(c3)CNC4)cc(Cl)cc2[nH]1`, the IC50 is > 99.5 µM.

As to `O=C(Nc1ccc2c(c1)CNC2)c1cc(F)c2[nH]ccc2c1`, the IC50 was > 99.5 µM.

Turning to `O=C(Nc1ccc2c(c1)CNC2)c1cc(Br)cc2ccccc12`, the IC50 is > 99.5 µM.

Regarding `O=C(Nc1ccc2c(c1)CNC2)c1cc(Cl)cc2cn[nH]c12`, the midpoint of inhibition, the IC50, lay at 41.9 µM.

The compound `O=C(Nc1cc(Cl)cc(C(=O)Nc2ccc3c(c2)CCNC3)c1)OCc1ccccc1` gave a half-maximal inhibitory concentration (IC50) of 24.4 µM.

Compound `O=C(Nc1ccc2c(c1)CNC2)c1cc(Cl)cc2ccncc12` returned an IC50 of 69.8 µM.

As to `c1cc(C2CCN(Cc3c[nH]c4ccccc34)CC2)c2ccncc2c1`, the IC50 is > 99.5 µM.

`C=CC[C@H]1NCc2cc(NC(=O)c3cc(F)cc4[nH]ncc34)ccc21`: inhibition was half-maximal at 32.3 µM (IC50).

Regarding `O=C(Nc1ccc2c(c1)CNC2)c1ccc2[nH]cc(C3CCNCC3)c2c1`, the IC50 amounted to 29.2 µM.

`Cc1ccccc1-c1nc2c(C(=O)Nc3ccc4c(c3)CNC4)cc(F)cc2[nH]1` yielded an IC50 of 2.2 µM.

With `CNC(=O)[C@H](Nc1cc(CN)cc(-c2nn[nH]n2)c1)c1cc(Cl)cc(C2CC2)c1`, the IC50 is > 99.5 µM.

Turning to `C=CC[C@H](Nc1cc(Cl)cc(NC(=O)OCc2ccccc2)c1)c1cccc(-c2nn[nH]n2)c1`, half-maximal inhibition (IC50) was put at 6.43 µM.

With `CC(C)NC(=O)[C@H](Nc1ccc2c(c1)CNC2)c1cc(Cl)cc2[nH]ncc12`, the midpoint of inhibition, the IC50, lay at 26.2 µM.

Compound `C=CC[C@H]1NCc2cc(NC(=O)c3cc(Cl)cc4[nH]ncc34)ccc21` yielded an IC50 of 68.2 µM.

For `O=C(NCC(F)F)[C@H](Nc1ccc2c(c1)CNC2)c1cc(F)cc2[nH]ccc12`, the 50% inhibitory concentration (IC50) is > 99.5 µM.

As for `N#Cc1cc2c(cc1NC(=O)c1cc(F)cc3[nH]ncc13)CNC2`, inhibition was half-maximal at 5.39 µM (IC50).

For the compound `CNC(=O)[C@H](Nc1cccc(CN)c1)c1cc(Cl)cc(NC(=O)OCc2ccccc2)c1`, the IC50 is > 99.5 µM.

For the compound `O=C1Cc2c(cc(Br)cc2C(=O)Nc2ccc3c(c2)CNC3)N1`, the IC50 is 17.8 µM.

With `O=C(Nc1cc(Cl)cc([C@H](C#CCO)Nc2cccc(-c3nn[nH]n3)c2)c1)OCc1ccccc1`, the IC50 worked out at 11.9 µM.

`O=C(Nc1ccc2c(c1)CNC2)c1cc(Cl)cc2nn(-c3ccccc3)nc12`: the IC50 stood at 4.73 µM.

On to `O=C(Nc1cc2c(c(C3=CCOCC3)c1)CNC2)c1cc(F)cc2[nH]ncc12`, for which 8.47 µM corresponded to half-maximal inhibition (IC50).

Regarding `Cc1c(C(=O)Nc2cc([C@H]3CCOC3)ccn2)cc(C2CC2)n1C`, the IC50 is > 99.5 µM.

With `CC(C)c1cc(Br)cc(C(=O)Nc2ccc3c(c2)CNC3)c1`, the IC50 was > 99.5 µM.

As for `O=C(Nc1ccc2c(c1)CNC2)c1cccc2cn[nH]c12`, the IC50 was determined as 37.3 µM.

`O=C(Nc1cc(Br)c2c(c1)CNC2)c1cc(F)cc2[nH]ncc12`: the midpoint of inhibition, the IC50, lay at 15 µM.

For `NCc1ccc([C@H]2C[C@@H]2c2cc(Cl)cc(NC(=O)OCc3ccccc3)c2)cc1`, the midpoint of inhibition, the IC50, lay at 6.85 µM.

Consider `NCCc1csc2cc(C(=O)Nc3ccc4c(c3)CNC4)ccc12`, for which the IC50 is > 99.5 µM.

In turn, `O=C(Nc1ccc2c(c1)CNC2)c1cc(Br)cc2[nH]c(=O)[nH]c12` showed an IC50 of 21.5 µM.

On to `C=CC[C@H]1NCc2cc(N[C@H](C(=O)NC(C)C)c3cc(Cl)cc4[nH]ncc34)ccc21`, for which 55.1 µM corresponded to half-maximal inhibition (IC50).

On to `OCC#C[C@H](Nc1ccc2c(c1)CNC2)c1cc(Cl)cc2[nH]ncc12`, for which the 50% inhibitory concentration (IC50) amounted to 26.2 µM.

For `CNC(=O)[C@H](Nc1cc(Cl)cc(NC(=O)OCc2ccccc2)c1)c1cccc(-c2nn[nH]n2)c1`, half-maximal inhibition (IC50) was put at 40.4 µM.

Compound `O=C(Nc1ccc2c(c1)CNC2)c1cc(Cl)cc2cc[nH]c12` came in with an IC50 of 87.9 µM.

For the compound `CC(C)(c1nc2c(C(=O)Nc3ccc4c(c3)CNC4)cc(F)cc2[nH]1)S(C)(=O)=O`, half-maximal inhibition (IC50) required 13.6 µM.

`O=C(Nc1ccc2c(c1)CNC2)c1cc(Cl)cc2[nH]ncc12` had an IC50 of 13.4 µM.

`O=C(NC1CCOCC1)[C@H](Nc1ccc2c(c1)CNC2)c1cc(Cl)cc2[nH]ncc12` had an IC50 of 39.5 µM.

Take `O=C(Nc1ccc2c(c1)CNC2)c1cccc2[nH]c(C(F)(F)F)cc12`: half-maximal inhibition (IC50) required 31.8 µM.

Take `O=C(Nc1ccc2c(c1)CNCC2)c1cc(Cl)cc2[nH]ncc12`: half-maximal inhibition (IC50) was put at 93.9 µM.

As for `O=C(NCC(F)F)[C@H](Nc1ccc2c(c1)CNC2)c1cc(F)cc2[nH]ncc12`, 93.7 µM corresponded to half-maximal inhibition (IC50).

For `O=C(Nc1cc(Cl)cc([C@H]2CN(Cc3ccccc3)C[C@@H]2c2cccc(-c3nn[nH]n3)c2)c1)OCc1ccccc1`, the concentration for half-maximal inhibition (IC50) worked out at 6.03 µM.

As for `Cn1c(=O)[nH]c2c(C(=O)Nc3ccc4c(c3)CNC4)cc(Br)cc21`, the IC50 was > 99.5 µM.

In the case of `O=C(Nc1cc2c(c(C3=CCS(=O)(=O)CC3)c1)CNC2)c1cc(F)cc2[nH]ncc12`, the IC50 was found to be 12.8 µM.

For `O=C(Nc1cc(Cl)cc(C(=O)Nc2cccc([C@H]3C[C@H]3C(=O)O)c2)c1)OCc1ccccc1`, half-maximal inhibition (IC50) was put at 22.6 µM.

Compound `Cc1c(C(=O)Nc2cc(CCCN)ccn2)cc(C2CC2)n1C` returned an IC50 of 34.5 µM.
